# Measurements published in patent publication US20080063628A1, “METHODS TO PROMOTE CELL DIFFERENTIATION” (priority 2006, published 2008).
# Columns and labels:
# [1] = system: second amniotic fluid-derived cell line; assay: Two sequential low dose trichostatin A treatments, gene expression by RT-PCR (Example 7); format: cell-based, human; details: for Gata1 gene expression / HNF (HNF-3 beta) gene expression / Insulin gene expression / Pdx-1 gene expression / sox17 gene expression: 500 nM 0-24 h + 96-120 h
# Description: (§1) Several cell lines obtained from different amniotic fluid specimens (see Example 14) and pancreas donors (see Example 13) were tested with similar results. Two lines at similar passage number but derived from different amniotic fluid specimens are shown in Table VII-A and Table VII-B for this example. One of these cell lines was also used in examples 2 and 4 above. In addition, this example also contains comparison data in Table VII-C and Table VII-D for a single pancreatic-derived stromal line grown to early and late passage number.
# (§2) Amniotic fluid derived cells or pancreatic-derived stromal cells were seeded into 24-well tissue culture plates at a density of 5000/cm^2 and cultured in AMNIOMAX (Invitrogen) or DMEM with 10% FBS respectively under standard cell culture conditions until confluent. After the cells reached confluency, amniotic fluid derived cells were treated at time 0 hours with a dose of 500 nM trichostatin A, and pancreatic-derived stromal cells were treated with a dose of 1.25 μM trichostatin A solubilized in DMSO and medium. At time 24 hours, cell cultures underwent a complete medium change to remove all traces of trichostatin A. At time 96 hours, cell cultures were re-fed with fresh medium and received a second dose of trichostatin A at the same concentration as used previously. At time 120 hours, cell cultures again underwent a complete medium change and were cultured for an additional 24 hours or […] total incubation time.
# (§3) Samples were taken daily for RT-PCR at the times indicated in Table VII-A to D. The culture medium was removed, and samples were rinsed in PBS then collected in RLT with β-mercaptoethanol (Qiagen). RNA was purified using the RNeasy Mini Kit (Qiagen) and RNA quantity and quality were determined using a spectrophotometer. cDNA was made using the iScript cDNA synthesis kit (BioRad).
# (§4) Samples of 20 ng cDNA were used in each reaction to determine the expression levels of the following genes in amniotic fluid-derived cells: Gata1, HNF-3 beta, Pdx-1, insulin, and Sox17. Similarly, samples of 20 ng cDNA were used in each reaction to determine the expression level of the following genes in pancreatic-derived cells: glucagon, HNF-3 beta, insulin and Pdx-1. Real-Time PCR was performed on the Applied Biosystems 7500, and data was analyzed using the accompanying software according to the methods described in Example 15.
# (§5) Real-time PCR amplifcation and quantitative analysis. Unless otherwise stated, all reagents were purchased from Applied Biosystems. Real-time PCR reactions were performed using the ABI PRISM™ 7500 Sequence Detection System. TAQMAN™ FAST UNIVERSAL PCR MASTER MIX™ (ABI, CA) was used with 20 ng of reverse transcribed RNA in a total reaction volume of 20 μl. Each cDNA sample was run in duplicate to allow correction of pipetting errors. Primers and FAM-labeled TAQMAN™ probes were used at concentrations of 200 nM. The level of expression for each target gene was normalized using the pre-developed Applied Biosystem's human glyceraldehyde-3-phosphate dehydrogenase (GAPDH) endogenous control kit. Primers and probes were designed using either ABI PRISM PRIMER EXPRESS™ software or a pre-developed ABI gene analysis kit. For each gene, either one of the primers or the probe were designed to be exon-boundary spanning. This eliminated the possibility of the primers/probe binding to any genomic DNA present. The primer and probe sets are listed as follows: Pdx-1 (Hs00426216), Insulin (Hs00355773), glucagon (Hs00174967), and FoxA2 (HNF 3-beta) (Hs00232764). The remaining primers were designed using the PRIMERS program (ABI, CA). After an initial 95° C. incubation for 20 sec, samples were cycled 40 times in two stages: a denaturation step at 95° C. for 3 sec, followed by an annealing/extension step at 60° C. for 30 sec. […]
# [2] = system: late passage (P14) pancreatic-derived stromal cell line; assay: as above; format: cell-based, human; details: for HNF (HNF-3 beta) gene expression / Insulin gene expression / Pdx-1 gene expression / glucagon gene expression: 1.25 μM 0-24 h + 96-120 h
# Description: as §1, §2, §3, §4, §5
# [3] = 1.25 μM, after the second treatment cycle
# [4] = 1.25 μM, following first treatment
structure (smiles),measurement,setting,value
CC(/C=C/C(=O)NO)=C\[C@@H](C)C(=O)c1ccc(N(C)C)cc1 [trichostatin A],Pdx-1 RT-PCR detection cycle,"[1]; 0.5 μM, 24 hours",39 cycles
same,Insulin RT-PCR detection cycle,"[1]; 0.5 μM, 72 hours and remainder of the experiment",34 cycles
same,HNF-3 beta RT-PCR detection cycle,"[1]; 0.5 μM, until 72 hours",34 cycles
same,Gata1 gene expression,[1]; 24 hrs,nd (not detectable at >40 cycles by RT-PCR)
same,HNF (HNF-3 beta) gene expression,[1]; 24 hrs,+++ (detectable at less than 35 cycles RT-PCR with SE less than 0.9)
same,Insulin gene expression,[1]; 24 hrs,nd (not detectable at >40 cycles by RT-PCR)
same,Pdx-1 gene expression,[1]; 24 hrs,+ (detectable between 35 and 40 cycles RT-PCR)
same,sox17 gene expression,[1]; 24 hrs,+++ (detectable at less than 35 cycles RT-PCR with SE less than 0.9)
same,Gata1 gene expression,[1]; 48 hrs,nd (not detectable at >40 cycles by RT-PCR)
same,HNF (HNF-3 beta) gene expression,[1]; 48 hrs,+++ (detectable at less than 35 cycles RT-PCR with SE less than 0.9)
same,Insulin gene expression,[1]; 48 hrs,nd (not detectable at >40 cycles by RT-PCR)
same,Pdx-1 gene expression,[1]; 48 hrs,nd (not detectable at >40 cycles by RT-PCR)
same,sox17 gene expression,[1]; 48 hrs,+++ (detectable at less than 35 cycles RT-PCR with SE less than 0.9)
same,Gata1 gene expression,[1]; 72 hrs,nd (not detectable at >40 cycles by RT-PCR)
same,HNF (HNF-3 beta) gene expression,[1]; 72 hrs,+++ (detectable at less than 35 cycles RT-PCR with SE less than 0.9)
same,Insulin gene expression,[1]; 72 hrs,+++ (detectable at less than 35 cycles RT-PCR with SE less than 0.9)
same,Pdx-1 gene expression,[1]; 72 hrs,nd (not detectable at >40 cycles by RT-PCR)
same,sox17 gene expression,[1]; 72 hrs,+++ (detectable at less than 35 cycles RT-PCR with SE less than 0.9)
same,Gata1 gene expression,[1]; 96 hrs,nd (not detectable at >40 cycles by RT-PCR)
same,HNF (HNF-3 beta) gene expression,[1]; 96 hrs,+ (detectable between 35 and 40 cycles RT-PCR)
same,Insulin gene expression,[1]; 96 hrs,+++ (detectable at less than 35 cycles RT-PCR with SE less than 0.9)
same,Pdx-1 gene expression,[1]; 96 hrs,nd (not detectable at >40 cycles by RT-PCR)
same,sox17 gene expression,[1]; 96 hrs,+++ (detectable at less than 35 cycles RT-PCR with SE less than 0.9)
same,Gata1 gene expression,[1]; 120 hrs,nd (not detectable at >40 cycles by RT-PCR)
same,HNF (HNF-3 beta) gene expression,[1]; 120 hrs,+ (detectable between 35 and 40 cycles RT-PCR)
same,Insulin gene expression,[1]; 120 hrs,+ (detectable between 35 and 40 cycles RT-PCR)
same,Pdx-1 gene expression,[1]; 120 hrs,nd (not detectable at >40 cycles by RT-PCR)
same,sox17 gene expression,[1]; 120 hrs,+++ (detectable at less than 35 cycles RT-PCR with SE less than 0.9)
same,Gata1 gene expression,[1]; 144 hrs,nd (not detectable at >40 cycles by RT-PCR)
same,HNF (HNF-3 beta) gene expression,[1]; 144 hrs,+ (detectable between 35 and 40 cycles RT-PCR)
same,Insulin gene expression,[1]; 144 hrs,+++ (detectable at less than 35 cycles RT-PCR with SE less than 0.9)
same,Pdx-1 gene expression,[1]; 144 hrs,nd (not detectable at >40 cycles by RT-PCR)
same,sox17 gene expression,[1]; 144 hrs,+++ (detectable at less than 35 cycles RT-PCR with SE less than 0.9)
same,HNF (HNF-3 beta) gene expression,[2]; 24 hrs,+ (detectable between 35 and 40 cycles by RT-PCR)
same,Insulin gene expression,[2]; 24 hrs,nd (not detectable at >40 cycles by RT-PCR)
same,Pdx-1 gene expression,[2]; 24 hrs,+++ (detectable at less than 35 cycles by RT-PCR with SE less than 0.9)
same,glucagon gene expression,[2]; 24 hrs,+++ (detectable at less than 35 cycles by RT-PCR with SE less than 0.9)
same,HNF (HNF-3 beta) gene expression,[2]; 48 hrs,nd (not detectable at >40 cycles by RT-PCR)
same,Pdx-1 gene expression,[2]; 48 hrs,nd (not detectable at >40 cycles by RT-PCR)
same,glucagon gene expression,[2]; 48 hrs,+++ (detectable at less than 35 cycles by RT-PCR with SE less than 0.9)
same,HNF (HNF-3 beta) gene expression,[2]; 72 hrs,nd (not detectable at >40 cycles by RT-PCR)
same,Insulin gene expression,[2]; 72 hrs,nd (not detectable at >40 cycles by RT-PCR)
same,Pdx-1 gene expression,[2]; 72 hrs,nd (not detectable at >40 cycles by RT-PCR)
same,glucagon gene expression,[2]; 72 hrs,+ (detectable between 35 and 40 cycles by RT-PCR)
same,HNF (HNF-3 beta) gene expression,[2]; 96 hrs,nd (not detectable at >40 cycles by RT-PCR)
same,Insulin gene expression,[2]; 96 hrs,nd (not detectable at >40 cycles by RT-PCR)
same,Pdx-1 gene expression,[2]; 96 hrs,nd (not detectable at >40 cycles by RT-PCR)
same,glucagon gene expression,[2]; 96 hrs,nd (not detectable at >40 cycles by RT-PCR)
same,HNF (HNF-3 beta) gene expression,[2]; 120 hrs,+++ (detectable at less than 35 cycles by RT-PCR with SE less than 0.9)
same,Insulin gene expression,[2]; 120 hrs,nd (not detectable at >40 cycles by RT-PCR)
same,Pdx-1 gene expression,[2]; 120 hrs,++ (detectable at less than 35 cycles by RT-PCR with SE greater than 0.9)
same,HNF (HNF-3 beta) gene expression,[2]; 144 hrs,nd (not detectable at >40 cycles by RT-PCR)
same,Insulin gene expression,[2]; 144 hrs,nd (not detectable at >40 cycles by RT-PCR)
same,Pdx-1 gene expression,[2]; 144 hrs,nd (not detectable at >40 cycles by RT-PCR)
same,glucagon gene expression,[2]; 144 hrs,+ (detectable between 35 and 40 cycles by RT-PCR)
same,HNF-3 beta RT-PCR detection cycle,[2]; [3],34 cycles
same,Pdx-1 RT-PCR detection cycle,[2]; [3],34 cycles
same,glucagon RT-PCR detection cycle,[2]; [3],36 cycles
same,HNF-3β RT-PCR detection cycle,[2]; [4],33 cycles
same,Pdx-1 RT-PCR detection cycle,[2]; [4],33 cycles
same,glucagon RT-PCR detection cycle,[2]; [4],33 cycles
